Measurements: US20250099557A1, “ANTIBIOTIC PHARMACEUTICAL COMPOSITION CAPABLE OF SUBCUTANEOUS ADMINISTRATION” (SHANGHAI BAO PHARMACEUTICALS CO., LTD., priority 2021, published 2025)

How the values were obtained:
HAase = target: T1, HAase (Homo sapiens, UniProt P38567); assay: Compatibility study of HAase and antibiotic in solution: HAase activity; format: biochemical; details: 15 min room temperature; for Final concentration of HAase (units/ml) 150: HAase added to 150 units/ml; for Final concentration of HAase (units/ml) 500: HAase added to 500 units/ml; for Final concentration of HAase (units/ml) 2000: HAase added to 2000 units/ml; for Final concentration of HAase (units/ml) 6000: HAase added to 6000 units/ml; for interference with the activity of HAase: antibiotic and HAase in physiological saline
T1 construct: made in house
T1 sequence (P38567 36-482): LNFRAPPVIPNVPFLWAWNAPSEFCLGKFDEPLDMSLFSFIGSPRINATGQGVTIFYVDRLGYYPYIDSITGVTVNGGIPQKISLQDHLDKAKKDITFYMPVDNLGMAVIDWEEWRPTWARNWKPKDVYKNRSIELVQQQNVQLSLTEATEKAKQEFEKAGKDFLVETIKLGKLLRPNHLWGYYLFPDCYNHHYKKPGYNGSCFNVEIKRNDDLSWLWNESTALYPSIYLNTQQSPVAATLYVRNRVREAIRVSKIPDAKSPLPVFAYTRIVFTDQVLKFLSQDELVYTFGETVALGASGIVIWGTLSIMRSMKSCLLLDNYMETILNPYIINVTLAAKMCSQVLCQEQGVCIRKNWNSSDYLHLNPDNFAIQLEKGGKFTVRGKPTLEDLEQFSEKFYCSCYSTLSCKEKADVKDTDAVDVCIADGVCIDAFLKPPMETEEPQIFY
Description: “HAase activity refers to the ability of HAase to catalytically cleave hyaluronic acid. The Chinese Pharmacopoeia provides a method for determining the HAase activity, indirectly by measuring the amount of remaining higher-molecular-weight hyaluronic acid substrate after the enzyme is allowed to catalytically cleave hyaluronic acid at 37° C. for 30 min. A standard reference solution can be used in the assay to determine the relative activity (in units) of any HAase. In-vitro assays for the determination of HAase are known in the art. Exemplary assays include micro-turbidimetric assay described below, which indirectly measures the cleavage of hyaluronic acid by HAase by detecting an insoluble precipitate formed when uncleaved hyaluronic acid binds to serum albumin. The reference standard can be used, for example, to generate a standard curve, so as to determine the activity of the tested HAase in units.
(§1) The compatibility of HAase and an antibiotic was studied by preparing a solution comprising the two substances. A dry Meropenem power for injection was dissolved in physiological saline to give a concentration of 5 mg/ml and 50 mg/ml, and then HAase was added to give a final concentration of 150, 500, 2000, and 6000 units/ml respectively. After preparation, the solution was left to stand at room temperature for 15 min. The appearance of the solution was observed, and the concentration of HAase was determined.
as §1, with “dry Ceftriaxone sodium” for “dry Meropenem”, “of 50” for “of 5”, “and 250” for “and 50”
as §1, with “dry Azithromycin” for “dry Meropenem”, “of 10” for “of 5”, “and 100” for “and 50”
as §1, with “dry Cefradine powder” for “dry Meropenem power”, “of 50” for “of 5”, “and 250” for “and 50”
as §1, with “dry Teicoplanin powder” for “dry Meropenem power”, “of 10” for “of 5”, “and 70” for “and 50”
as §1, with “dry Ceftazidime powder” for “dry Meropenem power”, “of 20” for “of 5”, “and 200” for “and 50”, “min.” for “min. The appearance of the solution was observed, and the concentration of HAase was determined.”

intestinal flora = assay: Effects of administration routes on the diversity of intestinal flora in mice (16S rDNA sequencing, OTU); format: in vivo; details: C57BL/6 mice, feces
Source text: 12 SPF grade C57BL/6 mice were used for each antibiotic mode, and divided into two groups, each having 6 mice. The two groups include an oral administration group, and a subcutaneous administration group combined with recombinant human HAase. A blank control group including 6 mice was also set. The mice in the oral administration group were given the model antibiotic solution by oral gavage for five consecutive days. The mice in the subcutaneous administration group combined with recombinant human HAase were given the same dose of model antibiotic as that in the oral administration group by subcutaneous administration for five consecutive days. The feces of mice in each group were collected on the 1 st, 2nd, 3rd, 4th, 5th, 6th, 8th, 10th and 14th days after five consecutive days of administration, and stored at −80° C., for detecting the microbial diversity later. The fecal samples of each group were amplified and sequenced by 16S rDNA sequencing. After DNA extraction, PCR amplification and gene sequencing, the changes of intestinal bacterial diversity in each group of mice were analyzed. The relative species diversity of the test group was calculated, with the OUT value of the blank control group in each day as a reference, as shown in Table 33.

[1] = antibiotic 50 mg/ml in physiological saline
[2] = antibiotic 250 mg/ml in physiological saline
[3] = in combination with recombinant human HAase for subcutaneous administration, five consecutive days, D1 after administration
[4] = in combination with recombinant human HAase for subcutaneous administration, five consecutive days, D2
[5] = in combination with recombinant human HAase for subcutaneous administration, five consecutive days, D3
[6] = in combination with recombinant human HAase for subcutaneous administration, five consecutive days, D4
[7] = in combination with recombinant human HAase for subcutaneous administration, five consecutive days, D5
[8] = in combination with recombinant human HAase for subcutaneous administration, five consecutive days, D6
[9] = in combination with recombinant human HAase for subcutaneous administration, five consecutive days, D8
[10] = in combination with recombinant human HAase for subcutaneous administration, five consecutive days, D10
[11] = in combination with recombinant human HAase for subcutaneous administration, five consecutive days, D14
[12] = oral administration for five consecutive days, D1 after administration
[13] = oral administration for five consecutive days, D2
[14] = oral administration for five consecutive days, D3
[15] = oral administration for five consecutive days, D4
[16] = oral administration for five consecutive days, D5
[17] = oral administration for five consecutive days, D6
[18] = oral administration for five consecutive days, D8
[19] = oral administration for five consecutive days, D10
[20] = oral administration for five consecutive days, D14
[21] = antibiotic 30 mg/ml in physiological saline
[22] = antibiotic 300 mg/ml in physiological saline

| SMILES | interference with the activity of HAase (HAase) | Relative abundance of OUT (operational taxonomic units) (intestinal flora; [3]) [%] | Relative abundance of OUT (operational taxonomic units) (intestinal flora; [4]) [%] | Relative abundance of OUT (operational taxonomic units) (intestinal flora; [5]) [%] | Relative abundance of OUT (operational taxonomic units) (intestinal flora; [6]) [%] | Relative abundance of OUT (operational taxonomic units) (intestinal flora; [7]) [%] | Relative abundance of OUT (operational taxonomic units) (intestinal flora; [8]) [%] | Relative abundance of OUT (operational taxonomic units) (intestinal flora; [9]) [%] | Relative abundance of OUT (operational taxonomic units) (intestinal flora; [10]) [%] | Relative abundance of OUT (operational taxonomic units) (intestinal flora; [11]) [%] | Relative abundance of OUT (operational taxonomic units) (intestinal flora; [12]) [%] | Relative abundance of OUT (operational taxonomic units) (intestinal flora; [13]) [%] | Relative abundance of OUT (operational taxonomic units) (intestinal flora; [14]) [%] | Relative abundance of OUT (operational taxonomic units) (intestinal flora; [15]) [%] | Relative abundance of OUT (operational taxonomic units) (intestinal flora; [16]) [%] | Relative abundance of OUT (operational taxonomic units) (intestinal flora; [17]) [%] | Relative abundance of OUT (operational taxonomic units) (intestinal flora; [18]) [%] | Relative abundance of OUT (operational taxonomic units) (intestinal flora; [19]) [%] | Relative abundance of OUT (operational taxonomic units) (intestinal flora; [20]) [%] | further results |
| --- | --- | --- | --- | --- | --- | --- | --- | --- | --- | --- | --- | --- | --- | --- | --- | --- | --- | --- | --- | --- |
| CO/N=C(\C(=O)N[C@@H]1C(=O)N2C(C(=O)O)=C(CSc3nc(=O)c(=O)[nH]n3C)CS[C@H]12)c1csc(N)n1 [Ceftriaxone] | does not interfere with the activity of HAase | 31.5 | 28.8 | 28.9 | 33.2 | 29.1 | 33.2 | 37.9 | 39.3 | 47.1 | 16.8 | 14.7 | 10.4 | 14.1 | 15.5 | 18.3 | 15.8 | 23.0 | 25.7 | Final concentration of HAase (units/ml) 150 (HAase; [1]): 162 units/ml; Final concentration of HAase (units/ml) 500 (HAase; [1]): 510 units/ml; Final concentration of HAase (units/ml) 2000 (HAase; [1]): 1986 units/ml; Final concentration of HAase (units/ml) 6000 (HAase; [1]): 6067 units/ml; Final concentration of HAase (units/ml) 150 (HAase; [2]): 162 units/ml; Final concentration of HAase (units/ml) 500 (HAase; [2]): 507 units/ml; Final concentration of HAase (units/ml) 2000 (HAase; [2]): 1962 units/ml; Final concentration of HAase (units/ml) 6000 (HAase; [2]): 6232 units/ml |
| C[C@@H](O)[C@H]1C(=O)N2C(C(=O)O)=C(S[C@@H]3CN[C@H](C(=O)Nc4cccc(C(=O)O)c4)C3)[C@H](C)[C@H]12 [Ertapenem] | not interfere with the activity of HAase | 30.5 | 30.9 | 28.9 | 31.2 | 28.2 | 33.2 | 36.8 | 36.7 | 39.3 | 16.2 | 13.1 | 10.4 | 14.6 | 16.0 | 15.3 | 15.8 | 20.9 | 24.1 | Final concentration of HAase (units/ml) 150 (HAase; [21]): 152 units/ml; Final concentration of HAase (units/ml) 500 (HAase; [21]): 501 units/ml; Final concentration of HAase (units/ml) 6000 (HAase; [21]): 6121 units/ml; Final concentration of HAase (units/ml) 500 (HAase; [22]): 511 units/ml; Final concentration of HAase (units/ml) 2000 (HAase; [22]): 1974 units/ml; Final concentration of HAase (units/ml) 6000 (HAase; [22]): 5990 units/ml |
